# From patent publication US8183379B2, “Antitumor agents” (Wayne State University, priority 2005, dated 2012)
# Like-named read-outs stand apart in the source and are kept apart here.
# Legend:
# [1] = system: Mammary Adenocarcinoma 16/C; test: Exp 2877A: evaluation against early stage Mammary Adenocarcinoma 16/C implanted SC in C3H female mice; assay type: in vivo
# Experimental: In Experiment #2877A the following general methodologies were employed:
# Tumor and Animal Maintenance
# Mammary adenocarcinoma-16/C were used in the studies. […] The mice were supplied food and water ad libitum.
# Chemotherapy of Solid Tumors
# Animals were pooled, implanted subcutaneously with 30 to 60 mg tumor fragments by a 12 gauge trocar on day 0, and again pooled before unselective distribution to the various treatment and control groups. For early stage treatment, chemotherapy was started within 1 to 3 days after tumor implantation while the number of cells was relatively small (10^7 to 10^8 cells). Tumors were measured with a caliper twice weekly. Mice were sacrificed when their tumors reached 1500 mg. Tumor weights are estimated from two-dimensional measurements:
# Tumor weight (in mg)=(a×b^2)/2, where a and b are the tumor length and width in (mm), respectively.
# End Points for Assessing Antitumor Activity for Solid Tumors
# The following quantitative endpoints were used to assess antitumor activity: • a) Tumor growth delay (T−C value), where T is the median time (in days) required for the treatment group tumors to reach a predetermined size (e.g., 1000 mg), and C is the median time (in days) for the control group tumors to reach the same size. Tumor-free survivors are excluded from these calculations (cures are tabulated separately). This value is an important criterion of antitumor effectiveness because it allows the quantification of tumor cell kill. • b) Calculation of tumor cell kill For subcutaneously (SC) growing tumors, the log10 cell kill was calculated from the following formula:
# [formula] where T−C is the tumor growth delay as described above and Td is the tumor volume doubling time (in days), estimated from the best fit straight line from a log-linear growth plot of the control group tumors in exponential growth (100 to 800 mg range). The conversion of the T−C values to log10 cell kill is possible because the Td of tumors regrowing post treatment (Rx) approximates the Td values of the tumors in untreated control mice.
# The issue of conversion of tumor growth delay (T−C value) to log tumor cell kill is justified in this series because of the large number of cures obtained with 5 of the agents in this XK469 series that have been previously studied and patented. Cures are a clear indication of tumor cell kill (rather than stasis of tumor cell replication).
# In selected cases, both for historic in vivo evaluation data as well as data presented here, it is of value to compare log kill numbers from trials of markedly different testing schedules. For this purpose, an activity table was created, and is presented below. It should be noted that an activity rating of +++ to ++++ is needed to effect partial regression (PR) or complete regression (CR) of 100 to 300 mg size masses of most transplanted solid tumors of mice. Thus, an activity rating of + or ++ would not be scored as active by usual clinical criteria. A PR is a reduction in tumor mass to less than 50% of pretreatment size. A CR is a reduction in tumor mass to below palpable size (i.e., reduction to zero detectable mass).
# [2] = Experimental: Mammary adenocarcinoma-16/C were used in the studies. Tumors were maintained in the mouse strain of origin C3H (for the mammary tumors). Individual mouse body weights for each experiment were within 5 grams, and all mice were over 17 grams at the start of therapy. The mice were supplied food and water ad libitum.
# The treatment and control groups were measured when the control group tumors reach approximately 700 to 1200 mg in size (median of group). The T/C value in percent is an indication of antitumor effectiveness: A T/C=0% means no tumor growth. […] A T/C equal to or less than 42% is considered significant antitumor activity by the Drug Evaluation Branch of the Division of Cancer Treatment (NCI). A T/C value <10% is considered to indicate highly significant antitumor activity, and is the level used by NCI to justify a clinical trial if toxicity, formulation, and certain other requirements are met (termed DN-2 level activity).
# [3] = system: transplantable mouse tumors; conditions: cited from earlier work
# [4] = Cg 4, IV Q2dx7, 54 mg/kg, total 378 mg/kg
# [5] = Cg 5, IV Q2dx7, 34 mg/kg, total 238 mg/kg
# [6] = Cg 6, IV Q2dx7, 48-60 mg/kg, total 372 mg/kg
# [7] = Cg 7, IV Q2dx7, 30-38 mg/kg, total 234 mg/kg
# [8] = Cg 8, IV Qd1,3,5,7-13, 57-125 mg/kg, total 822 mg/kg
# [9] = Cg 9, IV Qd1,3,5,7-13, 36-75 mg/kg, total 513 mg/kg
smiles,measurement,setting,value
"COc1c(Br)ccc2ccc(Oc3ccc(OC(C)C(=O)O)cc3)nc12 (stereo not drawn) [SH135R, 2-(4-(7-Bromo-8-methoxyquinolin-2-yloxy)phenoxy)propanoic acid]",Activity rating (Comments),[1]; [4],(++++) (Highly active ++++ >2.8)
same,Log Cell Kill Gross,[1]; [4],5.0
same,Log Cell Kill Net,[1]; [4],1.4
same,Median Tumor Burden in mg on d10,[1]; [4],0 mg
same,T-C,[1]; [4],16.5 days
same,T/C %,[1]; [4],0%
same,Time to 1000 mg,[1]; [4],25.5 days
same,Tumor Free on d43,[1]; [4],0/5
same,Activity rating (Comments),[1]; [5],(++++) (Highly active ++++ >2.8)
same,Log Cell Kill Gross,[1]; [5],4.2
same,Log Cell Kill Net,[1]; [5],0.6
same,Median Tumor Burden in mg on d10,[1]; [5],63 mg
same,T-C,[1]; [5],14 days
same,T/C %,[1]; [5],5.5%
same,Time to 1000 mg,[1]; [5],23 days
same,Tumor Free on d43,[1]; [5],0/4
same,T/C %,"[1]; Cg 5, IV Q2dx7, 34 mg/kg, total 238 mg/kg, listed as SH 135(R)",0%
"COc1c(Cl)ccc2ccc(Oc3ccc(OC(C)C(=O)O)cc3)nc12 (stereo not drawn) [SH140R, 2-(4-(7-Chloro-8-methoxyquinolin-2-yloxy)phenoxy)propanoic acid]",Drug Death (day of death),[2]; [6],0/5
same,Drug Death (day of death),[2]; [7],0/5
same,Activity rating (Comments),[1]; [6],(++++) (Highly active ++++ >2.8)
same,Log Cell Kill Gross,[1]; [6],4.8
same,Log Cell Kill Net,[1]; [6],1.2
same,Median Tumor Burden in mg on d10,[1]; [6],0 mg
same,T-C,[1]; [6],16 days
same,T/C %,[1]; [6],0%
same,Time to 1000 mg,[1]; [6],25 days
same,Tumor Free on d43,[1]; [6],0/5
same,Activity rating (Comments),[1]; [7],(++++) (Highly active ++++ >2.8)
same,Log Cell Kill Gross,[1]; [7],3.6
same,Log Cell Kill Net,[1]; [7],0
same,Median Tumor Burden in mg on d10,[1]; [7],63 mg
same,T-C,[1]; [7],12 days
same,T/C %,[1]; [7],5.5%
same,Time to 1000 mg,[1]; [7],21 days
same,Tumor Free on d43,[1]; [7],0/5
"COc1c(F)ccc2ccc(Oc3ccc(OC(C)C(=O)O)cc3)nc12 (stereo not drawn) [SH144R, 2-(4-(7-Fluoro-8-methoxyquinolin-2-yloxy)phenoxy)propanoic acid]",Drug Death (day of death),[2]; [8],0/4
same,Drug Death (day of death),"[2]; Cg 8, IV Qd1,3,5,7-13, 57-125 mg/kg, total 822 mg/kg, listed as SH 144(R)",no drug deaths
same,Drug Death (day of death),[2]; [9],0/5
same,Activity rating (Comments),[1]; [8],(++++) (Highly active ++++ >2.8)
same,Log Cell Kill Gross,[1]; [8],4.1
same,Log Cell Kill Net,[1]; [8],0.5
same,Median Tumor Burden in mg on d10,[1]; [8],0 mg
same,T-C,[1]; [8],13.5 days
same,T/C %,[1]; [8],0%
same,Time to 1000 mg,[1]; [8],22.5 days
same,Tumor Free on d43,[1]; [8],0/4
same,Activity rating (Comments),[1]; [9],(+++) (2.0-2.8)
same,Log Cell Kill Gross,[1]; [9],2.1
same,Log Cell Kill Net,[1]; [9],−1.5
same,Median Tumor Burden in mg on d10,[1]; [9],320 mg
same,T-C,[1]; [9],7 days
same,T/C %,[1]; [9],28%
same,Time to 1000 mg,[1]; [9],16 days
same,Tumor Free on d43,[1]; [9],0/5
CC(Oc1ccc(Oc2cnc3ccc(Cl)cc3n2)cc1)C(=O)[O-].[Na+] (stereo not drawn) [XK469],activity against transplantable mouse tumors,"[3]; Corbett et al., Investigational New Drugs 16, 129-139 (1998)",broad activity
same,undesirable side effects,"[3]; reported, in vivo","in vivo toxicity, e.g., paralytic ileus, GI-epithelial damage, marrow toxicity, neuromuscular toxicity and weight loss"
same,potency,[3]; reported,relatively low potency
